Measured values from US6100256A, “Use of NK-1 receptors antagonists for treating schizophrenic disorders” (priority 1996, dated 2000).
Where two headings read alike, the source gives them in different places.

Target: T1, NK-1 receptor (Meriones unguiculatus, UniProt Q5DUB1)
T1 construct: from tissue; host or cells: central nervous system of living Mongolian gerbils (in vivo, agonist infused i.c.v.)
Experiment: Gerbil foot-tapping induced by central NK-1 receptor agonist (GR73632)
Assay type: in vivo, Mongolian gerbils
Conditions: iv
Excerpt: Assay 2: Gerbil Foot-Tapping
CNS-penetrant NK-1 receptor antagonists for use in the present invention can be identified by their ability to inhibit foot tapping in gerbils induced by anxiogenic agents (such as pentagastrin) or central infusion of NK-1 receptor agonists such as GR73632, or caused by aversive stimulation such as foot shock or single housing, based on the method of Rupniak & Williams, Eur. J. Pharmacol., 1994, 265, 179.
Male or female Mongolian gerbils (35-70 g) are anaesthetised by inhalation of an isoflurane/oxygen mixture to permit exposure of the jugular vein in order to permit administration of test compounds or vehicle in an injection volume of 5 ml/kg i.v. Alternatively, test compounds may be administered orally or by subcutaneous or intraperitoneal routes. A skin incision is then made in the midline of the scalp to expose the skull. […]

T1 sequence (Q5DUB1 whole entry, the tested form may be a part): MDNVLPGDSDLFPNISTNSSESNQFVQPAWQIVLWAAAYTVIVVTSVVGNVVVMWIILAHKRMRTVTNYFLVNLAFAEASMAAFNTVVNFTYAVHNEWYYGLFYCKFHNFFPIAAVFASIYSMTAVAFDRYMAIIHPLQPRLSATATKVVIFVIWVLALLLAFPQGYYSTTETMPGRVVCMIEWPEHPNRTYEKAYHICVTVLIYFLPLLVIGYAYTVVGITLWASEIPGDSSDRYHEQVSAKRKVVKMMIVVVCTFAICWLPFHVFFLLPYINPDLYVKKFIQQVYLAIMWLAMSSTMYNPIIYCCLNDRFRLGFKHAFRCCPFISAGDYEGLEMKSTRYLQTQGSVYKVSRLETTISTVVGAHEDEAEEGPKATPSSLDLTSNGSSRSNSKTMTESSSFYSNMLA

SMILES: OC[C@@H](O[C@H]1OCCN(Cc2nc[nH]n2)[C@H]1c1ccc(F)cc1)c1cc(C(F)(F)F)cc(C(F)(F)F)c1 [2-(R)-(1-(S)-(3,5-bis(trifluoromethyl)phenyl)-2-hydroxyethoxy)-3-(S)-(4-fluorophenyl)-4-(1,2,4-triazol-3-yl)methylmorpholine]
- ED50 (5 min, i.v., 5 mins., administered immediately prior to central NK1 agonist challenge, read-out: gerbil foot-tapping (5 mins.): ID50): 0.38 mg/kg
- ED50 (24 hrs. prior to central NK1 agonist challenge, read-out: gerbil foot-tapping (24 hrs.): ID50): 2.2 mg/kg
